What was measured:
P. falciparum strain 3D7 = assay: Antiplasmodial activity in vitro, Hoechst-33258 fluorometric assay or parasite lactate dehydrogenase test; format: cell-based; details: Plasmodium falciparum, 3D7, read-out: P. f. 3D7/W2, IC50
Description: Recombinant falcipain-2 and falcipain-3 were produced as previously described. Inhibitory activities against recombinant falcipain-2 and falcipain-3 were evaluated in fluorometric microplate assays using the substrates Cbz-Phe-Arg-AMC and Cbz-Leu-Arg-AMC (AMC, 7-amino-4-methyl-coumarin). The cysteine protease inhibitor E-64 was used as a positive control. The solvent DMSO was used as negative control. […] The in vitro data for the etacrynic acid derivatives are compared to those of the well known drug chloroquine and to E-64.
IC50 values for inhibition of falcipain-2 and falcipain-3 were determined as described previously using the fluorogenic substrates Cbz-Phe-Arg-AMC and Cbz-Leu-Arg-AMC, respectively (AMC, 7-amino-4 methylcoumarin). As a positive control the well-known cysteine protease inhibitor E-64 [7, 25, 26] and as a negative control the solvent (DMSO) was used. Dose-dependent effects of compounds on parasite development (P. falciparum strain W2) were quantified by flow cytometry according to a previously published method. First, a screening with inhibitor concentrations of […] was performed and the percentage activity of infected red blood cells (RBCs) relative to the negative control was determined. […] Chloroquine and E-64 were used as positive controls, and the solvent DMSO was used as a negative control. For selected compounds assays with the P. falciparum strain 3D7 were performed using a fluorometric assay with Hoechst-33258 [28], or the microculture tetrazolium test measuring parasite lactate dehydrogenase activity. The parasites were cultivated in vitro as described previously. Compounds were screened at concentrations between 1 nM and 100 μM. Synchronized ring stages were plated in 96-well plates at a parasitemia of 1%, in the presence of the compounds (dissolved in DMSO). Incubation of parasites with DMSO alone at a concentration of 0.5% v/v was used as a negative control. IC50 values were calculated by non-linear regression analyses using the programs GaphPad® Prism 4 and GraFit® [31, 32].

P. falciparum strain W2 = details: read-out: P. f. 3D7/W2, IC50; cited from earlier work

In the case of CCN(CC)CCCC(C)Nc1ccnc2cc(Cl)ccc12 (centres unmarked) [CQ, chloroquine, reference compound], the IC50 (P. falciparum strain 3D7) is listed as 10 ± 4.8 nM and the IC50 (P. falciparum strain W2) is listed as 240 nM.

Reference: publication PMC6253875, “Synthesis and Evaluation of Non-peptidic Cysteine Protease Inhibitors of P. falciparum Derived from Etacrynic Acid” (Molecules, 2008)
